Measured values published in patent publication US10632192B2, “Pyrimidine compounds and their use as vaccine adjuvants” (Sumitomo Dainippon Pharma Co., Ltd., priority 2015, dated 2020).

Legend:
[1] = system: spleen cells; assay: OVA-specific multifunctional CD4-positive T lymphocytes in spleen cells of immunized mice (flow cytometry); format: in vivo, mouse; conditions: spleen cells of mice of Test Example 1, cultured overnight with OVA and Brefeldin A; IFN-γ, IL-2, TNF-α staining; vs negative control group; FIG. 3
Experimental: (§1) For the first immunization, an equal volume mixture (100 μL/mouse) of ovalbumin (OVA) (1 mg/mL) and a compound of the above Examples (0.1 mg/mL) was administered intramuscularly to gastrocnemius muscle of C57BL/6 mouse. Two weeks later, an equal amount of the same mixture was administered intramuscularly to the gastrocnemius muscle for booster immunization. One week after the booster immunization, cardiac blood was collected under isoflurane inhalation anesthesia, and plasma was collected by centrifugation. OVA-specific IgG value in plasma was measured by ELISA using mouse anti-ovalbumin IgG ELISA kit (Alpha Diagnostic) (See FIG. 1).
The spleen cells were prepared from the mouse of Test Example 1. The cells were added with OVA and Brefeldin A (eBioscience) and cultured overnight. The cultured cells were harvested, stained with APC-labeled anti-mouse CD3e antibody, FITC-labeled anti-mouse CD4 antibody and Fixable Viability Dye Fluor® 450 (eBioscience), and fixed in Fixation/Permeabilization buffer (eBioscience). After treatment in Permeabilization buffer (eBioscience), the cells were stained with antibody cocktail PerCP-Cy5.5-labeled anti-IFN-γ antibody, PE-Cy7-labeled anti-IL-2 antibody, and PE-labeled TNF-α (eBioscience). Data acquisition and analysis were performed using FACS Cant II (BD Biosciences) and FLOWJO software (TreeStar).

[2] = system: C57BL/6 mouse; assay: OVA-specific IgG1 and IgG2c in immunized mouse plasma (ELISA); format: in vivo; conditions: intramuscular OVA + compound, prime and booster, vs negative control group, FIG. 2
Experimental: as §1
Also, the OVA-specific IgG1 and IgG2c values in the immunized mouse plasma were determined by ELISA method. Specifically, OVA solution (SIGMA) was added to a 96-well plate, followed by blocking with 1% skim milk (Wako Pure Chemical Industries, Ltd.). A plasma sample, which was diluted with phosphate buffer, and then a secondary antibody (goat anti-mouse IgG1 (Jackson) or IgG2c (Southern Bio)) were added. SureBlue™ TMB microwell peroxidase substrate (KPL) was added, and the product of the enzyme reaction was measured by microplate reader (See FIG. 2).

[3] = system: spleen cells; assay: MHC-restricted OVA-specific CD8-positive T lymphocytes in spleen cells of immunized mice (tetramer staining); format: in vivo, mouse; conditions: spleen cells of mice of Test Example 1, H-2Kb OVA Tetramer-SINFEKL; vs negative control group; FIG. 4
Experimental: as §1
The spleen cells were also stained with eFluor 450-labeled anti-mouse CD3e antibody, Alexa Fluor® 647-labeled anti-mouse CD8 antibody, PE-labeled H-2Kb OVA Tetramer-SINFEKL (MBL) and Flexable Viability Dye eFluor 520 (eBioscience). Data acquisition and analysis were performed using FACS Cant II (BD Biosciences) and FLOWJO software (TreeStar).

[4] = system: spleen cells; assay: CD8-positive effector memory T lymphocytes in spleen cells of immunized mice (flow cytometry); format: in vivo, mouse; conditions: spleen cells of mice of Test Example 1, CD44/CD62L staining; vs negative control group; FIG. 5
Experimental: as §1
The spleen cells were further incubated with antibody cocktail eFluor450-labeled anti-mouse CD3e antibody, Alexa Fluor647-labeled anti-mouse CD8 antibody, PE-Cy7-labeled anti-mouse CD44 antibody, PerCP-Cy5.5-labeled anti-mouse CD62L antibody and Fixable Viability Dye520 (eBioscience). Data acquisition and analysis were performed using FACS Cant II (BD Biosciences) and FLOWJO software (TreeStar).

[5] = system: C57BL/6 mouse; assay: OVA-specific IgG in plasma of mice immunized with OVA plus compound (ELISA); format: in vivo; conditions: intramuscular, equal volume mixture (100 μL/mouse) of OVA 1 mg/mL and compound 0.1 mg/mL, booster two weeks later, plasma one week after booster, vs negative control group, FIG. 1
Experimental: as §1

`CCC[C@@H](CO)Nc1nc(N)nc(C)c1Cc1ccc(C(=O)NCCNC(=O)CC/C(C)=C/CC/C(C)=C/CC/C(C)=C/CC/C=C(\C)CC/C=C(\C)CCC=C(C)C)cc1OC` [Example 4, 4-[(2-amino-4-{[(25)-1-hydroxypentan-2-yl]amino}-6-methylpyrimidin-5-yl)methyl]-N-(2-{[(4E,8E,12E,16E,20E)-4,8,12,17,21,25-hexamethylhexacosa-4,8,12,16,20,24-hexaenoyl]amino}ethyl)-3-methoxybenzamide] was tested, and the “proportion of OVA-specific multifunctional CD4-positive T lymphocytes” value [1] was “significantly increased”, the “ratio of OVA-specific IgG2c to IgG1 in plasma” value [2] was “significantly increased” and the “proportion of MHC-restricted OVA-specific CD8-positive T lymphocytes” value [3] was “significantly increased”. For the same compound, the “proportion of CD8-positive effector memory T lymphocytes” value [4] was “significantly increased” and the “OVA-specific IgG production in plasma” value [5] was “induced significant OVA-specific IgG production”.
`CCC[C@@H](CCO)Nc1nc(N)nc(C)c1Cc1ccc(CN(C)CCNC(=O)CC/C(C)=C/CC/C(C)=C/CC/C(C)=C/CC/C=C(\C)CC/C=C(\C)CCC=C(C)C)cc1` [Example 1, (4E,8E,12E,16E,20E)-N-{2-[{4-[(2-amino-4-{[(3S)-1-hydroxyhexan-3-yl]amino}-6-methylpyrimidin-5-yl)methyl]benzyl}(methyl)amino]ethyl}-4,8,12,17,21,25-hexamethylhexacosa-4,8,12,16,20,24-hexaenamide] was tested, and the “proportion of OVA-specific multifunctional CD4-positive T lymphocytes” value [1] was “significantly increased”, the “ratio of OVA-specific IgG2c to IgG1 in plasma” value [2] was “significantly increased” and the “proportion of MHC-restricted OVA-specific CD8-positive T lymphocytes” value [3] was “significantly increased”. The “proportion of CD8-positive effector memory T lymphocytes” value [4] was “significantly increased” and the “OVA-specific IgG production in plasma” value [5] was “induced significant OVA-specific IgG production”.
